Earlier results in article PMC10526633 (Structure (London, England : 1993), 2023).

Tests used:
N62Q mutant cells = conditions: N62Q GRP94 mutant cells
SKBr3 cells = conditions: highest tested concentration of 20 μM
HER2 signaling = conditions: highest tested concentration of 20 μM

Row | Compound | Sensitivity of N62Q mutant cells to ligand (N62Q mutant cells) | Effect of limited sugar removal on ligand binding to GRP94 (GRP94; EndoH, retains N-acetylglucosamine attached to Asn, ref Yan et al. cell Reports 2020) | Effect of N217A mutation on ligand binding (GRP94; N217A mutant of GRP94) | Effect of complete deglycosylation on GRP94 binding to ligand (GRP94; PNGase F, ref Yan et al. cell Reports 2020) | Cytotoxicity in SKBr3 cells (SKBr3 cells) | Effect on HER2 signaling in SKBr3 cells (HER2 signaling)
1 | CC(C)NCCCn1c(Sc2cc(Cl)cc(Cl)c2)nc2c(N)ncnc21 [PU-WS13] | insensitivity | partially reduces | no effect | abolishes |  | 
2 | COC(=O)c1c(O)cc(O)c(Cl)c1CCc1nccn1Cc1ccccc1 [BnIm, methyl 2-(2-(1-benzyl-1H-imidazol-2-yl)ethyl)-3-chloro-4,6-dihydroxybenzoate] |  |  |  |  | no cytotoxicity | no effect
